Measured values: patent US12077503B2, “Substituted cyclic amides and their use as herbicides” (FMC CORPORATION, priority 2015, dated 2024)

Key:
Type in all cases: in vivo
[1] = test system: Kochia (Kochia scoparia); assay: Test A preemergence
Method in brief: (§1)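 Visual injury, scored on a 0–100 scale relative to untreated controls, was recorded about 10 d after application. Treatments were a preemergence soil spray over planted seeds or a postemergence spray on plants at the one- to two-leaf stage, 2 to 10 cm tall, all in loam soil–sand blend in the greenhouse.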

[2] = test system: barnyardgrass (Echinochloa crus-galli); assay: Test A preemergence
Method in brief: as §1

[3] = test system: giant foxtail (Setaria faberii); assay: Test A preemergence
Method in brief: as §1

[4] = test system: pigweed (Amaranthus retroflexus); assay: Test A preemergence; settings: preemergence
[5] = test system: ragweed (common ragweed, Ambrosia elatior); assay: Test A preemergence; settings: preemergence
Method in brief: as §1

[6] = test system: ryegrass, Italian (Italian ryegrass, Lolium multiflorum); assay: Test A preemergence; settings: preemergence
Method in brief: as §1

[7] = test system: Galium (catchweed bedstraw, Galium aparine); assay: Test A postemergence; settings: postemergence, 0 to 100 scale (0 no effect, 100 complete control)
Method in brief: as §1

[8] = test system: Kochia (Kochia scoparia); assay: Test A postemergence; settings: postemergence, 0 to 100 scale (0 no effect, 100 complete control)
Method in brief: as §1

[9] = test system: barnyardgrass (Echinochloa crus-galli); assay: Test A postemergence; settings: postemergence, 0 to 100 scale (0 no effect, 100 complete control)
Method in brief: as §1

[10] = test system: blackgrass (Alopecurus myosuroides); assay: Test A postemergence; settings: postemergence, 0 to 100 scale (0 no effect, 100 complete control)
Method in brief: as §1

[11] = test system: corn (Zea mays); assay: Test A postemergence; settings: postemergence, 0 to 100 scale (0 no effect, 100 complete control)
Method in brief: as §1

[12] = test system: giant foxtail (Setaria faberii); assay: Test A postemergence; settings: postemergence, 0 to 100 scale (0 no effect, 100 complete control)
Method in brief: as §1

[13] = test system: pigweed (Amaranthus retroflexus); assay: Test A postemergence; settings: postemergence, 0 to 100 scale (0 no effect, 100 complete control)
Method in brief: as §1

[14] = test system: ragweed (common ragweed, Ambrosia elatior); assay: Test A postemergence; settings: postemergence, 0 to 100 scale (0 no effect, 100 complete control)
Method in brief: as §1

[15] = test system: ryegrass, Italian (Italian ryegrass, Lolium multiflorum); assay: Test A postemergence; settings: postemergence, 0 to 100 scale (0 no effect, 100 complete control)
Method in brief: as §1

[16] = test system: wheat (Triticum aestivum); assay: Test A postemergence; settings: postemergence, 0 to 100 scale (0 no effect, 100 complete control)
Method in brief: as §1

[17] = test system: barnyardgrass (Echinochloa crus-galli); assay: Test B flooded paddy test; settings: Flood, 0 to 100 scale where 0 is no effect and 100 is complete control, 13 to 15 d
Method in brief: (§2)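 Percent control, visually estimated after 13–15 d in the greenhouse on a 0–100 basis, compares treated pots with untreated ones; compound was put into paddy water 3 cm above the soil when plants had two leaves.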

[18] = test system: ducksalad (Heteranthera limosa); assay: Test B flooded paddy test; settings: Flood, 0 to 100 scale where 0 is no effect and 100 is complete control, 13 to 15 d
Method in brief: as §2

[19] = test system: rice (Oryra sativa); assay: Test B flooded paddy test; settings: Flood, 0 to 100 scale where 0 is no effect and 100 is complete control, 13 to 15 d
Method in brief: as §2

[20] = test system: sedge, umbrella (small-flower umbrella sedge, Cyperus difformis); assay: Test B flooded paddy test; settings: Flood
Method in brief: as §2

[21] = test system: waterhemp (common waterhemp, Amaranthus rudis); assay: Test C preemergence; settings: for Plant response rating (scale of 0 to 100), Waterhemp: 0 is no effect, 100 is complete control; for Plant response rating, Waterhemp: scale 0 to 100, 0 no effect, 100 complete control
Method in brief: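 Scores of 0 to 100 reflect visual comparison with control plants, where 0 means no effect and 100 complete control, made 13 to 15 d after treatment. Application was preemergence to seeds in loam-sand soil or postemergence to plants 2 to 18 cm tall in peat-based mix, using a surfactant-containing solvent formulation.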

[22] = 125 g ai/ha, Preemergence, visual injury after approximately 10 d, 0 to 100 scale where 0 is no effect and 100 is complete control
[23] = 500 g ai/ha, preemergence, 0 to 100 scale, 0 = no effect, 100 = complete control
[24] = 125 g ai/ha, visual rating after approx. 10 d, 0 to 100 scale where 0 is no effect and 100 is complete control
[25] = 500 g ai/ha, 0 to 100 scale, 0 = no effect, 100 = complete control
[26] = 125 g ai/ha, visual injury after approximately 10 d
[27] = 500 g ai/ha, visual injury, approx. 10 d
[28] = 125 g ai/ha, visual rating after approx. 10 d
[29] = 125 g ai/ha, preemergence, visual rating after approx. 10 d, 0 to 100 scale where 0 is no effect and 100 is complete control

| SMILES | Plant response rating, Kochia [1, 23] | Plant response rating, Barnyardgrass [2, 23] | Plant response rating, Foxtail, Giant [3, 23] | Plant response rating, Pigweed [4, 24] | Plant response rating, Pigweed [4, 25] | Plant response rating, Ragweed [5, 24] | Plant response rating, Ragweed [5, 25] | Plant response rating, Ryegrass, Italian [6, 24] | Plant response rating, Ryegrass, Italian [6, 25] | Plant response rating, Galium [7, 26] | Plant response rating, Galium [7, 27] | Plant response rating, Kochia [8, 26] | Plant response rating, Kochia [8, 27] | Plant response rating, Barnyardgrass [9, 27] | Plant response rating, Blackgrass [10, 27] | Plant response rating, Corn [11, 26] | Plant response rating, Corn [11, 27] | Plant response rating, Foxtail, Giant [12, 26] | Plant response rating, Foxtail, Giant [12, 27] | Plant response rating, Pigweed [13, 26] | further results |
| --- | --- | --- | --- | --- | --- | --- | --- | --- | --- | --- | --- | --- | --- | --- | --- | --- | --- | --- | --- | --- | --- |
| CN1CC(c2ccc(C(C)(F)F)cc2)C(C(=O)Nc2cccc(F)c2F)C1=O (centres unmarked) [Compound 690] | 90 | 90 | 90 | 80 | 90 | 70 | 80 | 60 | 70 | 70 | 70 | 50 | 70 | 80 | 70 | 70 | 80 | 80 | 80 | 60 | Plant response rating, Kochia [1, 22]: 80; Plant response rating, Barnyardgrass [2, 22]: 90; Plant response rating, Foxtail, Giant [3, 22]: 90; Plant response rating, Barnyardgrass [9, 28]: 80; Plant response rating, Blackgrass [10, 28]: 60; Plant response rating, Pigweed [13, 27]: 70; Plant response rating, Ragweed [14, 26]: 60; Plant response rating, Ragweed [14, 27]: 70; Plant response rating, Ryegrass, Italian [15, 26]: 50; Plant response rating, Ryegrass, Italian [15, 27]: 60; Plant response rating, Wheat [16, 26]: 50; Plant response rating, Wheat [16, 27]: 60; Plant response rating, Barnyardgrass ([17]; 250 g ai/ha): 50; Plant response rating, Ducksalad ([18]; 250 g ai/ha): 75; Plant response rating, Rice ([19]; 250 g ai/ha): 0; Sedge, Umbrella plant response rating ([20]; 250 g ai/ha, scale of 0 to 100 where 0 is no effect and 100 is complete control): 0; Plant response rating (scale of 0 to 100), Waterhemp ([21]; 8 g ai/ha): 65; Plant response rating (scale of 0 to 100), Waterhemp ([21]; 16 g ai/ha): 80; Plant response rating (scale of 0 to 100), Waterhemp ([21]; 31 g ai/ha): 90; Plant response rating, Waterhemp ([21]; 62 g ai/ha): 95 |
| O=C1NCC(c2ccc(I)cc2)C1C(=O)Nc1cccc(F)c1F (racemic) [Compound 700] | 70 | 90 | 90 | 40 | 60 | 0 | 60 | 0 | 30 | 40 | 60 | 30 | 60 | 70 | 50 | 0 | 70 | 70 | 90 | 0 | Plant response rating, Kochia [1, 29]: 30; Plant response rating, Barnyardgrass [2, 29]: 90; Plant response rating, Foxtail, Giant [3, 29]: 90; Plant response rating, Barnyardgrass [9, 26]: 70; Plant response rating, Blackgrass [10, 26]: 0; Plant response rating, Pigweed [13, 27]: 30; Plant response rating, Ragweed [14, 26]: 20; Plant response rating, Ragweed [14, 27]: 30; Plant response rating, Ryegrass, Italian [15, 26]: 30; Plant response rating, Ryegrass, Italian [15, 27]: 40; Plant response rating, Wheat [16, 26]: 0; Plant response rating, Wheat [16, 27]: 60; Plant response rating, Barnyardgrass ([17]; 500 g ai/ha): 85; Plant response rating, Ducksalad ([18]; 500 g ai/ha): 100; Plant response rating, Rice ([19]; 500 g ai/ha): 0; Plant response rating, Sedge, Umbrella ([20]; 500 g ai/ha, 0 to 100 scale where 0 is no effect and 100 is complete control, 13 to 15 d): 0; Plant response rating (scale of 0 to 100), Waterhemp ([21]; 31 g ai/ha): 10; Plant response rating, Waterhemp ([21]; 62 g ai/ha): 65; Plant response rating, Waterhemp ([21]; 125 g ai/ha): 75; Plant response rating, Waterhemp ([21]; 250 g ai/ha): 70 |
